# Measurements taken from ChEMBL document CHEMBL5678795 (Eur J Pharmacol, 1999).
# Calls of active or inactive are those of the source. No cut-off for these calls is given here.
# Assays:
# [1] = molecular target: Endothelin receptor type B (Sus scrofa, UniProt P35463); experiment: Displacement of [125I]endhothelin-3 from ETB receptor in porcine Cerebellum Membrane at 25 degC incubated for 3 hrs by radioligand competition binding assay; format: cell membranes
# [2] = molecular target: Adenosine receptor A1 (Homo sapiens) (UniProt P30542); experiment: Displacement of [3H]DPCPX from human recombinant Adenosine A1 receptor at 10 uM incubated for 60 mins by radiometric based scintillation counter assay relative to control
# Sequence of Adenosine receptor A1 (Homo sapiens) (P30542 whole entry): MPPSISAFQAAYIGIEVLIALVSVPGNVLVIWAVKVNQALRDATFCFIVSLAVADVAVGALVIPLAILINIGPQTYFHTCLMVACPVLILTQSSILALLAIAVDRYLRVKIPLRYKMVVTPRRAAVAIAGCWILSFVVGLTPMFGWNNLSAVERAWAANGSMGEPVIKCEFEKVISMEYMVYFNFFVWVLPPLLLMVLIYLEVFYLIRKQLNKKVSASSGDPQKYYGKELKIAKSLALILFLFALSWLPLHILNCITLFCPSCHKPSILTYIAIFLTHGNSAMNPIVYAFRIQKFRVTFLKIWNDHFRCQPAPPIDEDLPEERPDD
# [3] = molecular target: Adenosine receptor A2a (Homo sapiens) (UniProt P29274); experiment: Displacement of [3H]CGS 21680 from human recombinant Adenosine A2A receptor at 10 uM incubated for 120 mins by radiometric based scintillation counter assay relative to control
# Sequence of Adenosine receptor A2a (Homo sapiens) (P29274 whole entry): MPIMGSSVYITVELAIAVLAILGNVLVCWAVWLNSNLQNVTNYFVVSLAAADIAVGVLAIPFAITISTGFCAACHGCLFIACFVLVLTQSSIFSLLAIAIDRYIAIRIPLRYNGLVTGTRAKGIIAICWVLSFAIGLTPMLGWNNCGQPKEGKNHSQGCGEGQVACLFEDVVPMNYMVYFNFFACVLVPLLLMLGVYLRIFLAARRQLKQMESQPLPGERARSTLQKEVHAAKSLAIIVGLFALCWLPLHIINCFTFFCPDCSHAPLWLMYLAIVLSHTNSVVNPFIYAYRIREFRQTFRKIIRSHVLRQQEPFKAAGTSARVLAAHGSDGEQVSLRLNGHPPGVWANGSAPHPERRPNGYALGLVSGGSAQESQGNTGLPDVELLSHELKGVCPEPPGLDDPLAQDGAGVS
# [4] = molecular target: Adrenergic receptor alpha-1 (Rattus norvegicus) (UniProt P15823+P23944+P43140); experiment: Displacement of [3H]prazosin from rat brain alpha1-adrenoceptor at 10 uM incubated for 60 mins by radiometric based scintillation counter assay relative to control; format: tissue-based
# [5] = molecular target: Beta-2 adrenergic receptor (Homo sapiens) (UniProt P07550); experiment: Displacement of [3H](-)CGP 12177 from human recombinant beta2-adrenoceptor at 10 uM incubated for 120 mins by radiometric based scintillation counter assay relative to control
# Sequence of Beta-2 adrenergic receptor (Homo sapiens) (P07550 whole entry, looked up): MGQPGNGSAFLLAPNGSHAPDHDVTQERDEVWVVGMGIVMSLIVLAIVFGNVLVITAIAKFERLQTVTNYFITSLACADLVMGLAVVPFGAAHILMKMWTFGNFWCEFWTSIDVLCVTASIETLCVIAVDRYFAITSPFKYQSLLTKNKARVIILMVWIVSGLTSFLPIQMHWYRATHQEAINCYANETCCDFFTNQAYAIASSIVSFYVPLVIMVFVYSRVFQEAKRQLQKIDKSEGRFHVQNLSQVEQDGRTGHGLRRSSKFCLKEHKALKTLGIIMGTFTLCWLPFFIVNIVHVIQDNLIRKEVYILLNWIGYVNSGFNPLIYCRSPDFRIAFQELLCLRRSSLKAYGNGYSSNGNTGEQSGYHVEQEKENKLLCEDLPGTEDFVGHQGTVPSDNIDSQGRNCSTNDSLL
# [6] = molecular target: Sodium-dependent noradrenaline transporter (Homo sapiens) (UniProt P23975); experiment: Inhibition of human norepinephrine expressed in CHO cells at 10 uM incubated for 180 mins by radiometric based scintillation counter assay relative to control; format: cell-based
# Sequence of Sodium-dependent noradrenaline transporter (Homo sapiens) (P23975 whole entry): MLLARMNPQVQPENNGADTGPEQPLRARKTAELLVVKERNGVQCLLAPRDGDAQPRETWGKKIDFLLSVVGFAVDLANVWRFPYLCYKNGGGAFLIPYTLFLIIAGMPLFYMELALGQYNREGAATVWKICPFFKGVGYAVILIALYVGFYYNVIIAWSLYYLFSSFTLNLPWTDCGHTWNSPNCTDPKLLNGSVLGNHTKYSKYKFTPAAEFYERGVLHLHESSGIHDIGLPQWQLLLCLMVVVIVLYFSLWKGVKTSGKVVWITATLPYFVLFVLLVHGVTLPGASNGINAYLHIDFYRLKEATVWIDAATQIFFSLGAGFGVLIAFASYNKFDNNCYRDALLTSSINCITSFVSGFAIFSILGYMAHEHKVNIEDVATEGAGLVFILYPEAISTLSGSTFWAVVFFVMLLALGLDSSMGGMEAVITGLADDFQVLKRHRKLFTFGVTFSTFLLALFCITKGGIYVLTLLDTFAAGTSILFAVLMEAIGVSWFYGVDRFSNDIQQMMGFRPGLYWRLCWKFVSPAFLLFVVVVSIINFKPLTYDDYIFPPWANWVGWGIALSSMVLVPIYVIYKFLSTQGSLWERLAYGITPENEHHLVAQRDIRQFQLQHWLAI
# [7] = molecular target: B2 bradykinin receptor (Homo sapiens) (UniProt P30411); experiment: Displacement of [3H]bradykinin from human recombinant Bradykinin B2 receptor at 10 uM incubated for 60 mins by radiometric based scintillation counter assay relative to control
# [8] = molecular target: Cannabinoid receptor 2 (Homo sapiens) (UniProt P34972); experiment: Displacement of [3H]WIN 55212-2 from human recombinant cannabinoid CB2 receptor at 10 uM incubated for 120 mins by radiometric based scintillation counter assay relative to control
# Sequence of Cannabinoid receptor 2 (Homo sapiens) (P34972 whole entry): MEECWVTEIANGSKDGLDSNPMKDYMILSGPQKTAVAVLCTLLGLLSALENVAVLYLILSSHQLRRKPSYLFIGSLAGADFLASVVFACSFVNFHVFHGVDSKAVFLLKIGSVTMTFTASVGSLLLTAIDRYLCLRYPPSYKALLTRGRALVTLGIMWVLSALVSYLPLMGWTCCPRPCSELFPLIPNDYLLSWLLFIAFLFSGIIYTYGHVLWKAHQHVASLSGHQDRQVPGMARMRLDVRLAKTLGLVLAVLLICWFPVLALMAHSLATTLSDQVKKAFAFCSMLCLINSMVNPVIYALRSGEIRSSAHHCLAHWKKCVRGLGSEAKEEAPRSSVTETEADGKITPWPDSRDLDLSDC
# [9] = molecular target: Sodium-dependent dopamine transporter (Homo sapiens) (UniProt Q01959); experiment: Displacement of [3H]BTCP from human recombinant dopamine receptor at 10 uM incubated for 120 mins by radiometric based scintillation counter assay relative to control
# Sequence of Sodium-dependent dopamine transporter (Homo sapiens) (Q01959 whole entry): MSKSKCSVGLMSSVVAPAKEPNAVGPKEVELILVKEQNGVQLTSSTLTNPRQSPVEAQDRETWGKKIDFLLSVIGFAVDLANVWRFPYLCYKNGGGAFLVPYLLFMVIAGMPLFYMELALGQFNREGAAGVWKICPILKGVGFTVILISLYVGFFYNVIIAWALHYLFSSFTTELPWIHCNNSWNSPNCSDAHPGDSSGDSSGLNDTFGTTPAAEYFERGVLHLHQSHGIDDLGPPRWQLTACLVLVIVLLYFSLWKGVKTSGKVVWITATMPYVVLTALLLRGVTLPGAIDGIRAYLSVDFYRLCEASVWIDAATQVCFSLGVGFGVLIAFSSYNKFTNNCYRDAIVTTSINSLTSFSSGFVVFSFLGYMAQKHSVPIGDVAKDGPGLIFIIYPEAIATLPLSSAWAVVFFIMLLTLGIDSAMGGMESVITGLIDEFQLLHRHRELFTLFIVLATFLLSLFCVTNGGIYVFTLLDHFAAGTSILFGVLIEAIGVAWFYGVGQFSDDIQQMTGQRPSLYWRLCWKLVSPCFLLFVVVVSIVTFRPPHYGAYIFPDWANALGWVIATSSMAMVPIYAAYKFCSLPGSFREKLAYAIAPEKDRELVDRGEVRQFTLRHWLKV
# [10] = molecular target: Neuropeptide Y receptor type 2 (Homo sapiens) (UniProt P49146); experiment: Displacement of [125I]peptide YY from human recombinant Y2 receptor at 10 uM incubated for 60 mins by radiometric based scintillation counter assay relative to control
# Sequence of Neuropeptide Y receptor type 2 (Homo sapiens) (P49146 whole entry): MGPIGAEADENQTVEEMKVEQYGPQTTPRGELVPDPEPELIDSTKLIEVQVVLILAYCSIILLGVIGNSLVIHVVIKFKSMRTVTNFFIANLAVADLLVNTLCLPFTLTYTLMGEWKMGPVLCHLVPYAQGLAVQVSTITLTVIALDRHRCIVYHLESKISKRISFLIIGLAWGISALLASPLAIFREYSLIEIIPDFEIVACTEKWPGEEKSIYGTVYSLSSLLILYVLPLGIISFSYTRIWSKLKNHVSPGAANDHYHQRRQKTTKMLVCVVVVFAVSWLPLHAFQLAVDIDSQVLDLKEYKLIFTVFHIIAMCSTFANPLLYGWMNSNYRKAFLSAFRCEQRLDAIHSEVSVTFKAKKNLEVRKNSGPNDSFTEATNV
# [11] = molecular target: Neurotensin receptor type 1 (Homo sapiens) (UniProt P30989); experiment: Displacement of [125I]Tyr3-neurotensin from human recombinant Neurotensin receptor at 10 uM incubated for 60 mins by radiometric based scintillation counter assay relative to control
# Sequence of Neurotensin receptor type 1 (Homo sapiens) (P30989 whole entry): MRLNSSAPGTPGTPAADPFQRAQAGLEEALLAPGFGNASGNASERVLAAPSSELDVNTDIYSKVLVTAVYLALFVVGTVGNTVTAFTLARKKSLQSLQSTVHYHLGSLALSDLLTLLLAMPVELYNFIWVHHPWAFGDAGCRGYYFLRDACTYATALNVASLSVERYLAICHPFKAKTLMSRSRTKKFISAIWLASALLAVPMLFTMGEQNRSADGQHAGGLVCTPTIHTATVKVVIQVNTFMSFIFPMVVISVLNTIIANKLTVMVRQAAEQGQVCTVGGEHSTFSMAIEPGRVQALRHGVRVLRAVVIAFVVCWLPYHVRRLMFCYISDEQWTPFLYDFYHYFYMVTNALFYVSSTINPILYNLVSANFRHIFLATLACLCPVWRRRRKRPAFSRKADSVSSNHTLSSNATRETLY
# [12] = molecular target: P2X receptor (Rattus norvegicus) (UniProt P51579+P49653+P51578+Q64663+P47824+P51577+P49654); experiment: Displacement of [3H]alpha,beta -MeATP from rat bladder P2X-purinergic receptor at 10 uM incubated for 120 mins by radiometric based scintillation counter assay relative to control; format: protein assay
# [13] = molecular target: 5-hydroxytryptamine receptor 2A (Homo sapiens) (UniProt P28223); experiment: Displacement of [3H]ketanserin from human recombinant 5-Hydroxytryptamine 2A at 10 uM incubated for 60 mins by radiometric based scintillation counter assay relative to control
# Sequence of 5-hydroxytryptamine receptor 2A (Homo sapiens) (P28223 whole entry): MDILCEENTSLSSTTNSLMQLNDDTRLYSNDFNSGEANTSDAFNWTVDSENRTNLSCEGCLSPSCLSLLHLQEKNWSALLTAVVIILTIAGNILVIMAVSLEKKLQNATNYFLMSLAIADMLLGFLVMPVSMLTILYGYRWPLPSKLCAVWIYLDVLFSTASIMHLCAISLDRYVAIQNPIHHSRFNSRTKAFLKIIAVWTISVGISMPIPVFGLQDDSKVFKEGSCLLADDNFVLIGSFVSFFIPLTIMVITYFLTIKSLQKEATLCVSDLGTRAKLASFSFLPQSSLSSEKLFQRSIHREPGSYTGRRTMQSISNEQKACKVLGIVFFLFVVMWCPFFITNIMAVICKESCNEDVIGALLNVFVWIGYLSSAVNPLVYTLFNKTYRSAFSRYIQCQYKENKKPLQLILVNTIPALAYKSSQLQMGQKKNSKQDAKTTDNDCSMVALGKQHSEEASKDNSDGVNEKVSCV
# [14] = organism: Homo sapiens; experiment: Displacement of [3H]BRL 43694 from human recombinant 5-Hydroxytryptamine 3 at 10 uM incubated for 120 mins by radiometric based scintillation counter assay relative to control
# [15] = molecular target: Vasoactive intestinal polypeptide receptor 1 (Homo sapiens) (UniProt P32241); experiment: Displacement of [125I]VIP from human recombinant Vasoactive intestinal peptide receptor at 10 uM incubated for 60 mins by radiometric based scintillation counter assay relative to control
# Sequence of Vasoactive intestinal polypeptide receptor 1 (Homo sapiens) (P32241 whole entry): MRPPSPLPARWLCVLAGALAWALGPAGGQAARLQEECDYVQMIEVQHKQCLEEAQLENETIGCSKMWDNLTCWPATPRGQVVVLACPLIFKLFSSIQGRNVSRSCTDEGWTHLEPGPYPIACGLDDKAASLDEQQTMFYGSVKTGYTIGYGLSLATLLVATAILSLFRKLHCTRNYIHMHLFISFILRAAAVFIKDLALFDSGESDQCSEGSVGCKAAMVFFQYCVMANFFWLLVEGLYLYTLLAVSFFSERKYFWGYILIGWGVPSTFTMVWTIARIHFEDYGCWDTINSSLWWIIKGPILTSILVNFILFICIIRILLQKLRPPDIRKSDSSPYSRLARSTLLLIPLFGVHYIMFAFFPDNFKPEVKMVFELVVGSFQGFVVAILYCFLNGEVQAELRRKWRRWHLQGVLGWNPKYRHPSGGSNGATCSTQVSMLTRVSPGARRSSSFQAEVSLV
# [16] = organism: Homo sapiens; experiment: Inhibition of L-type Ca2+ channel (unknown origin) at 10 uM by radioligand binding assay relative to control
# [17] = organism: Homo sapiens; experiment: Inhibition of Ca2+ dependent potassium channel (unknown origin) at 10 uM by radioligand binding assay relative to control
# [18] = organism: Homo sapiens; experiment: Displacement of [35S]TBPS to GABA channel Chloride ionophore binding site (unknown origin) at 10 uM by radioligand binding assay relative to control; details: filed as antagonist
# [19] = Half life in cynomolgus monkey at 5 mg/kg, po administered for 12 hrs by HPLC analysis; format: ADME, organism-based, Macaca fascicularis; details: in vivo
# [20] = Cmax in Sprague-Dawley rat at 10 mg/kg, po administered for 12 hrs by HPLC analysis; format: ADME, organism-based; details: in vivo
# [21] = Oral bioavailability in Sprague-Dawley rat at 10 mg/kg administered for 12 hrs by HPLC analysis; format: ADME, organism-based; details: in vivo
# [22] = molecular target: T1, Endothelin-1 receptor (Rattus norvegicus) (UniProt P26684); experiment: In vivo antagonist activity to ETA receptor in endothelin-1 induced Sprague-Dawley rat assessed as inhibition of transient depressor response at 10 to 30 mg/kg, po administered for 4 hrs; format: functional, organism-based; details: dose 10-30 mg/kg
# T1 sequence (whole entry): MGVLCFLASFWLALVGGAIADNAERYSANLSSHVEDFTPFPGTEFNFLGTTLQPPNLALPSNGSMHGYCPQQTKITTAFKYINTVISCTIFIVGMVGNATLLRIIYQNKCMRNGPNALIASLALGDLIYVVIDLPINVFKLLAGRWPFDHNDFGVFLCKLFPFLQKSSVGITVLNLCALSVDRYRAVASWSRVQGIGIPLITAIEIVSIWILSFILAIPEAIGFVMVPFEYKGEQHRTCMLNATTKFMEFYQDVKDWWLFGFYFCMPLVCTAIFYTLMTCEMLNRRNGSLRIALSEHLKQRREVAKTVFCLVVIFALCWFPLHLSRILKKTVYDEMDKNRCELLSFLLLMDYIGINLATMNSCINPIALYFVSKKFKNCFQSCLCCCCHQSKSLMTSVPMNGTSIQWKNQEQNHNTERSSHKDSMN
# [23] = molecular target: T1, Endothelin-1 receptor (Rattus norvegicus); experiment: In vivo antagonist activity to ETA receptor in endothelin-1 induced Sprague-Dawley rat assessed as reduction of vasopressor response at 30 mg/kg, po administered for 4 to 8 hrs; format: functional, organism-based; details: time 4-8 hrs
# [24] = molecular target: T1, Endothelin-1 receptor (Rattus norvegicus); experiment: In vivo antagonist activity to ETA receptor in endothelin-1 induced Sprague-Dawley rat assessed as reduction of vasopressor response at 30 mg/kg, po administered for 24 hrs; format: functional, organism-based
# Sequence of Endothelin receptor type B (P35463 whole entry): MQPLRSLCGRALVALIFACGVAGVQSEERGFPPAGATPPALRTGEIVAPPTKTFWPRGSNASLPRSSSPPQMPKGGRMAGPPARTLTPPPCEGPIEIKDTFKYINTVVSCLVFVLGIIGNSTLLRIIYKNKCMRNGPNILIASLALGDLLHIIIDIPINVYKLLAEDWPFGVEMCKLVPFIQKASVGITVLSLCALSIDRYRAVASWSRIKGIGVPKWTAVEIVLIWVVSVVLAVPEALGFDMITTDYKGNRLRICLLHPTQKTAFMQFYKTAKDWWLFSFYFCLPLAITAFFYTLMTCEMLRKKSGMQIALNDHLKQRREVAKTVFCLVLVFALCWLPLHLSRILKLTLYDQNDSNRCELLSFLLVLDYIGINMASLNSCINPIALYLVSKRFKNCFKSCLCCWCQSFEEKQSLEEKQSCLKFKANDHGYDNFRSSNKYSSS
compound,measurement,setting,value
CCCCN(CCCC)C(=O)CN1[C@H](c2cc(OC)c3c(c2)OCO3)C[C@@H](C(=O)O)[C@@H]1CC(C)(C)CCC,IC50,[1],16.7 µM
same,inhibition,[2],23%
same,inhibition,[3],< 10%
same,inhibition,[4],< 10%
same,inhibition,[5],< 10%
same,inhibition,[6],< 10%
same,inhibition,[7],< 10%
same,inhibition,[8],11%
same,inhibition,[9],< 10%
same,inhibition,[10],< 10%
same,inhibition,[11],< 10%
same,inhibition,[12],37%
same,inhibition,[13],< 10%
same,inhibition,[14],< 10%
same,inhibition,[15],< 10%
same,inhibition,[16],29%
same,inhibition,[17],< 10%
same,inhibition,[18],61%
same,half-life,[19],1 h
same,Cmax,[20],1690 ng/mL
same,bioavailability,[21],47.7%
same,Activity,[22],inactive
same,Activity,[23],Active
same,Activity,[24],inactive
